The source of these data is patent US20100292193A1, “RADIOPROTECTIVE DRUGS” (THE REGENTS OF THE UNIVERSITY OF CALIFORNIA, priority 2009, published 2010).

Experiment [1] relates to TiL-1 cells. Put plainly: ROS scavenging: intracellular ROS after irradiation (DCF-DA). Type of experiment: cell-based. The following applies: compound added 3 h before irradiation; DCF-DA 25 μM 1 h before; measured immediately after irradiation. The protocol:
FIGS. 5A and 5B show the effect of CPA on ROS scavenging.
The effect of CPA on ROS scavenging was also evaluated. […] The intracellular ROS was measured immediately after irradiation in TiL-1 cells using 2′,7′-dichlorofluorescein diacetate (DCF-DA, Invitrogen). The compound and DCF-DA probe at 25 μM was added 3 h and 1 h before irradiation, respectively.

Experiment [2] concerns mice. Put plainly: Animal survival against a lethal dose total body irradiation. The format is in vivo. On the procedure: (§1) FIGS. 4A and 4B show the effect of CPA on animal survival against a lethal dose total body irradiation (TBI). FIG. 4A: Two oral administrations of CPA at 24 h and 1 h prior to irradiation at 8 Gy. FIG. 4B: CPA at 6 mg/kg or vehicle control was administered twice prior to irradiation as (FIG. 4A) along with un-irradiated control mice for Granulocyte-macrophage colony forming units.
The effect of CPA on animal survival against a lethal dose total body irradiation was determined. […] This effect was most prominent with CPA treatment at 6 mg/kg showing 89% survival while only 17% of controls survived.

For experiment [3], the system named is TiL1 cells. The experiment can be described thus: Cell viability assay with irradiated TiL1 cells (ATPlite). Type of experiment: cell-based. The following applies: 2Gy, ATPlite 24 hours after irradiation, normalized to vehicle control. On the procedure:
FIGS. 3A and 3B show radiation dose-responses of irradiated TiL1 cells treated with cyclopiazonic acid (CPA). Cell viability assay with TiL1 cells was measured using ATPlite reagent 24 h after irradiation with 2Gy. CPA was added to the cells 3 h before IR for protection (FIG. 3A) or 1 h after IR for mitigation (FIG. 3B) activities.
Dose-responses of irradiated cells treated with cyclopiazonic acid (CPA) were determined. A cell viability assay with TiL1 cells was measured using ATPlite reagent 24 hours after irradiation with 2Gy. CPA was added to the cells 3 h before irradiation for protection (FIG. 3A), or 1 hour after irradiation mitigation (FIG. 3B) activities. The percent cell viability plotted was normalized to vehicle control value. As shown in FIGS. 3A and 3B CPA both protects and mitigates TiL1 cell from radiation damage.
A general note: ATP-based viability assays read luminescence as a measure of living cells.

Experiment [4] relates to bone marrow cells. The experiment can be described thus: Granulocyte-macrophage colony forming units from bone marrow after total body irradiation. The format is in vivo, mice. The following applies: 6 mg/kg twice prior to irradiation; bone marrow collected 3 d after TBI, counted 8-9 d after plating; p<0.05 IR vs IR+CPA. On the procedure:
as §1
CPA at 6 mg/kg or vehicle control was administered twice prior to irradiation as described above along with un-irradiated control mice for Granulocyte-macrophage colony forming units.

As for `CC(C)(C)c1cc(O)c(C(C)(C)C)cc1O` [di-tBHQ, 2,5-ditertbutylhydroquinone, reference compound], the “reduction of irradiation induced reactive oxygen species” value in experiment [1] is listed as “did in dose-responsive manner”.
As for cyclopiazonic acid [CPA], in experiment [2] (6 mg/kg oral, 24 h and 1 h prior to irradiation at 8 Gy, 17% of controls survived), the survival is 89%. Besides, in experiment [2] (two oral administrations at 24 h and 1 h prior to irradiation at 8 Gy), the “protection from radiation-induced death” value is recorded as “protected mice from radiation-induced death”. Also, the “reduction of irradiation induced reactive oxygen species” value in experiment [1] is recorded as “did not reduce”. Also, the “percent cell viability, mitigation activity” value in experiment [3] (CPA added 1 hour after irradiation) is on record as “mitigates”. Besides, in experiment [3] (CPA added 3 h before irradiation), the “percent cell viability, protection activity” value is “protects”. The “Gm-CFU, protection of the immunohematopoietic system” value in experiment [4] is recorded as “protects the immunohematopoietic system”.
